Results reported in ChEMBL document CHEMBL1201862, “PubChem BioAssay data set” (2004).
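These data come from cells grown in 96-well plates and exposed to compound for 48 hours at five concentrations. The concentration for 50% growth inhibition is given as GI50.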 Active and inactive are the calls of the source. No stated cut-off is given here; in the data, active = GI50 up to about 1.1 µM and inactive = higher.

Columns and labels:
Assay in all cases: NCI tumour cell line growth inhibition, 48 h
M14 = system: M14
SK-OV-3 = system: SK-OV-3
PC-3 = system: PC-3
U-251 = system: U-251
CCRF-CEM = system: CCRF-CEM
NCI-H522 = system: NCI-H522
NCI-H23 = system: NCI-H23
Hs-578T = system: Hs-578T
MDA-MB-435 = system: MDA-MB-435
ACHN = system: ACHN
OVCAR-4 = system: OVCAR-4
MDA-MB-231 = system: MDA-MB-231
T47D = system: T47D
NCI/ADR-RES = system: NCI/ADR-RES
CAKI-1 = system: CAKI-1

Q: O=C(CC(O)c1cccnc1)CC(O)c1cccnc1 (stereo not drawn) was tested. Which GI50 (M14) did it give?
A: 14.2 µM (inactive)

Q: And the GI50 (SK-OV-3)?
A: 17.5 µM (inactive)

Q: And the GI50 (PC-3)?
A: 15.8 µM (inactive)

Q: What about the GI50 (U-251) of the same molecule?
A: 16.5 µM (inactive)

Q: And the GI50 (CCRF-CEM)?
A: 3.02 µM (inactive)

Q: And the GI50 (NCI-H522)?
A: 13.4 µM (inactive)

Q: And the GI50 (NCI-H23)?
A: 22.5 µM (inactive)

Q: And the GI50 (Hs-578T)?
A: 28.4 µM (inactive)

Q: What about the GI50 (MDA-MB-435) of the same molecule?
A: 16.4 µM (inactive)

Q: What about the GI50 (ACHN) of the same molecule?
A: 17.8 µM (inactive)

Q: And the GI50 (OVCAR-4)?
A: 20.7 µM (inactive)

Q: And the GI50 (MDA-MB-231)?
A: 14.9 µM (inactive)

Q: What about the GI50 (T47D) of the same molecule?
A: 26.5 µM (inactive)

Q: What about the GI50 (NCI/ADR-RES) of the same molecule?
A: 24 µM (inactive)

Q: And the GI50 (CAKI-1)?
A: 17.7 µM (inactive)

Q: What does the source list for CN1C2CCC1CC(CCNC(c1ccccc1)c1ccccc1)C2 (stereo not drawn)?
A: GI50 (M14): 11.6 µM (inactive); GI50 (SK-OV-3): > 100 µM (inactive); GI50 (PC-3): 37.6 µM (inactive); GI50 (U-251): 30.6 µM (inactive); GI50 (CCRF-CEM): 36 µM (inactive); GI50 (NCI-H522): 25.2 µM (inactive); GI50 (NCI-H23): > 100 µM (inactive); GI50 (Hs-578T): 29.9 µM (inactive); GI50 (MDA-MB-435): 6.81 µM (inactive); GI50 (ACHN): 80.5 µM (inactive); GI50 (OVCAR-4): > 100 µM (inactive); GI50 (MDA-MB-231): 22.2 µM (inactive); GI50 (T47D): 25.5 µM (inactive); GI50 (NCI/ADR-RES): > 100 µM (inactive); GI50 (CAKI-1): 59.7 µM (inactive)

Q: With C#CC1(O)C(COP(=O)(O)OC(COCCCCCCCCCCCCCCCCCC)COP(=O)(O)OCC2OC(n3cc(C)c(=O)[nH]c3=O)CC2N=[N+]=[N-])OC(n2ccc(N)nc2=O)C1O (stereo not drawn) as the molecule, how does the GI50 (M14) read?
A: 8.02 µM (inactive)

Q: What about the GI50 (SK-OV-3) of the same molecule?
A: 4 µM (inactive)

Q: And the GI50 (PC-3)?
A: 2.86 µM (inactive)

Q: And the GI50 (U-251)?
A: 0.264 µM (active)

Q: And the GI50 (CCRF-CEM)?
A: 0.562 µM (active)

Q: And the GI50 (NCI-H522)?
A: 0.083 µM (active)

Q: And the GI50 (NCI-H23)?
A: 2.61 µM (inactive)

Q: What about the GI50 (Hs-578T) of the same molecule?
A: 5.4 µM (inactive)

Q: What about the GI50 (MDA-MB-435) of the same molecule?
A: 0.859 µM (active)

Q: What about the GI50 (ACHN) of the same molecule?
A: 0.432 µM (active)

Q: What about the GI50 (OVCAR-4) of the same molecule?
A: 4.45 µM (inactive)

Q: And the GI50 (MDA-MB-231)?
A: 2.39 µM (inactive)

Q: What about the GI50 (T47D) of the same molecule?
A: 3.73 µM (inactive)

Q: And the GI50 (NCI/ADR-RES)?
A: 1.22 µM (inactive)

Q: And the GI50 (CAKI-1)?
A: 0.31 µM (active)

Q: NS(=O)(=O)c1ccc(NNc2c3ccccc3nc3c(C(=O)Nc4ccc(S(N)(=O)=O)cc4)cccc23)cc1 was tested. Which GI50 (M14) did it give?
A: 55.3 µM (inactive)

Q: What about the GI50 (SK-OV-3) of the same molecule?
A: 50 µM (inactive)

Q: And the GI50 (PC-3)?
A: 30.2 µM (inactive)

Q: What about the GI50 (U-251) of the same molecule?
A: 14.5 µM (inactive)

Q: What about the GI50 (CCRF-CEM) of the same molecule?
A: 14.5 µM (inactive)

Q: What about the GI50 (NCI-H522) of the same molecule?
A: 15.2 µM (inactive)

Q: And the GI50 (NCI-H23)?
A: 28.8 µM (inactive)

Q: And the GI50 (Hs-578T)?
A: 19.1 µM (inactive)

Q: What about the GI50 (MDA-MB-435) of the same molecule?
A: 49.3 µM (inactive)

Q: And the GI50 (ACHN)?
A: 27.7 µM (inactive)

Q: And the GI50 (OVCAR-4)?
A: 19.6 µM (inactive)

Q: What about the GI50 (MDA-MB-231) of the same molecule?
A: 21.6 µM (inactive)

Q: And the GI50 (T47D)?
A: 6.27 µM (inactive)

Q: What about the GI50 (NCI/ADR-RES) of the same molecule?
A: > 100 µM (inactive)

Q: And the GI50 (CAKI-1)?
A: > 100 µM (inactive)

Q: COC(=O)C1CCC(=O)N1C(c1ccc(OC)cc1)c1ccc2c(c1)OCO2 (stereo not drawn) was tested. Which GI50 (M14) did it give?
A: 28.5 µM (inactive)

Q: And the GI50 (SK-OV-3)?
A: 59.4 µM (inactive)

Q: What about the GI50 (PC-3) of the same molecule?
A: 45.3 µM (inactive)

Q: What about the GI50 (U-251) of the same molecule?
A: 39.4 µM (inactive)

Q: And the GI50 (CCRF-CEM)?
A: 43.1 µM (inactive)

Q: What about the GI50 (NCI-H522) of the same molecule?
A: 22.4 µM (inactive)

Q: And the GI50 (NCI-H23)?
A: 82.8 µM (inactive)

Q: What about the GI50 (Hs-578T) of the same molecule?
A: 36.2 µM (inactive)

Q: And the GI50 (MDA-MB-435)?
A: 7.01 µM (inactive)

Q: What about the GI50 (ACHN) of the same molecule?
A: 97.9 µM (inactive)

Q: What about the GI50 (OVCAR-4) of the same molecule?
A: > 100 µM (inactive)

Q: And the GI50 (MDA-MB-231)?
A: > 100 µM (inactive)

Q: What about the GI50 (T47D) of the same molecule?
A: > 100 µM (inactive)

Q: And the GI50 (NCI/ADR-RES)?
A: 33.3 µM (inactive)

Q: What about the GI50 (CAKI-1) of the same molecule?
A: 62.8 µM (inactive)

Q: For CCc1cc(Cc2cc(CC)c(NC(=O)C(=O)CC(=O)c3sc(-c4cccnc4)nc3C)c(CC)c2)cc(CC)c1NC(=O)C(=O)CC(=O)c1sc(-c2cccnc2)nc1C, which GI50 (M14) is on record?
A: > 100 µM (inactive)

Q: What about the GI50 (SK-OV-3) of the same molecule?
A: > 100 µM (inactive)

Q: And the GI50 (PC-3)?
A: > 100 µM (inactive)

Q: And the GI50 (U-251)?
A: > 100 µM (inactive)

Q: What about the GI50 (CCRF-CEM) of the same molecule?
A: > 100 µM (inactive)

Q: And the GI50 (NCI-H522)?
A: > 100 µM (inactive)

Q: What about the GI50 (NCI-H23) of the same molecule?
A: > 100 µM (inactive)

Q: What about the GI50 (Hs-578T) of the same molecule?
A: > 100 µM (inactive)

Q: And the GI50 (MDA-MB-435)?
A: > 100 µM (inactive)

Q: And the GI50 (ACHN)?
A: > 100 µM (inactive)

Q: What about the GI50 (OVCAR-4) of the same molecule?
A: > 100 µM (inactive)

Q: What about the GI50 (MDA-MB-231) of the same molecule?
A: > 100 µM (inactive)

Q: And the GI50 (T47D)?
A: > 100 µM (inactive)

Q: And the GI50 (NCI/ADR-RES)?
A: > 100 µM (inactive)

Q: And the GI50 (CAKI-1)?
A: > 10 µM (inactive)

Q: Which GI50 (M14) does the source give for C/C(=N/O)c1cccc(Nc2nc3ccccc3c3[nH]c4ccccc4c23)c1 here?
A: 2.6 µM (inactive)

Q: What about the GI50 (SK-OV-3) of the same molecule?
A: 5.98 µM (inactive)

Q: What about the GI50 (PC-3) of the same molecule?
A: 2.93 µM (inactive)

Q: And the GI50 (U-251)?
A: 3.16 µM (inactive)

Q: And the GI50 (CCRF-CEM)?
A: 2.39 µM (inactive)

Q: What about the GI50 (NCI-H522) of the same molecule?
A: 1.5 µM (inactive)

Q: What about the GI50 (NCI-H23) of the same molecule?
A: 3.08 µM (inactive)

Q: What about the GI50 (Hs-578T) of the same molecule?
A: 3.24 µM (inactive)

Q: And the GI50 (MDA-MB-435)?
A: 2.5 µM (inactive)

Q: What about the GI50 (ACHN) of the same molecule?
A: 1.59 µM (inactive)

Q: And the GI50 (OVCAR-4)?
A: 2.33 µM (inactive)

Q: What about the GI50 (MDA-MB-231) of the same molecule?
A: 2.95 µM (inactive)

Q: What about the GI50 (T47D) of the same molecule?
A: 1.52 µM (inactive)

Q: And the GI50 (NCI/ADR-RES)?
A: 2.99 µM (inactive)

Q: And the GI50 (CAKI-1)?
A: 2.75 µM (inactive)

Q: For O=c1oc2ccc([N+](=O)[O-])cc2cc1-c1csc(-c2ccccc2)n1, which GI50 (M14) is on record?
A: > 100 µM (inactive)

Q: And the GI50 (SK-OV-3)?
A: > 100 µM (inactive)

Q: What about the GI50 (PC-3) of the same molecule?
A: > 100 µM (inactive)

Q: What about the GI50 (U-251) of the same molecule?
A: > 100 µM (inactive)

Q: What about the GI50 (CCRF-CEM) of the same molecule?
A: > 100 µM (inactive)

Q: And the GI50 (NCI-H522)?
A: > 100 µM (inactive)

Q: And the GI50 (Hs-578T)?
A: > 100 µM (inactive)

Q: What about the GI50 (MDA-MB-435) of the same molecule?
A: > 100 µM (inactive)

Q: What about the GI50 (ACHN) of the same molecule?
A: > 100 µM (inactive)

Q: What about the GI50 (OVCAR-4) of the same molecule?
A: > 100 µM (inactive)

Q: And the GI50 (MDA-MB-231)?
A: > 100 µM (inactive)

Q: And the GI50 (T47D)?
A: > 100 µM (inactive)

Q: And the GI50 (NCI/ADR-RES)?
A: > 100 µM (inactive)

Q: What about the GI50 (CAKI-1) of the same molecule?
A: > 100 µM (inactive)

Q: COc1ccc2nc3cc([N+](=O)[O-])ccc3c(Nc3ccc(S(=O)(=O)Nc4ncccn4)cc3)c2c1 was tested. Which GI50 (M14) did it give?
A: 48.8 µM (inactive)

Q: And the GI50 (SK-OV-3)?
A: > 100 µM (inactive)

Q: And the GI50 (PC-3)?
A: 30.6 µM (inactive)

Q: And the GI50 (U-251)?
A: > 55 µM (inactive)

Q: What about the GI50 (CCRF-CEM) of the same molecule?
A: > 76.9 µM (inactive)

Q: And the GI50 (NCI-H522)?
A: > 71.1 µM (inactive)

Q: And the GI50 (Hs-578T)?
A: 12.4 µM (inactive)

Q: And the GI50 (MDA-MB-435)?
A: > 67.3 µM (inactive)

Q: What about the GI50 (ACHN) of the same molecule?
A: 28.8 µM (inactive)

Q: What about the GI50 (OVCAR-4) of the same molecule?
A: > 100 µM (inactive)

Q: What about the GI50 (MDA-MB-231) of the same molecule?
A: > 60.1 µM (inactive)

Q: And the GI50 (T47D)?
A: > 100 µM (inactive)

Q: What about the GI50 (NCI/ADR-RES) of the same molecule?
A: > 100 µM (inactive)

Q: And the GI50 (CAKI-1)?
A: > 100 µM (inactive)
